Experimental data: ChEMBL document CHEMBL1201862, “PubChem BioAssay data set” (2004)
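Compound exposure: 48 hours, 5 concentrations, 96-well plates. GI50 = concentration required for 50% inhibition of growth.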 Activity calls are given as the source filed them. Rule as the data show it: active = GI50 up to about 1.1 µM and inactive = higher.

How the values were obtained:
Test in all cases: DTP human tumour cell line panel, 48 h
HCT-15 = test system: HCT-15
SR = test system: SR
KM12 = test system: KM12
HOP-62 = test system: HOP-62
HT-29 = test system: HT-29
UO-31 = test system: UO-31
Hs-578T = test system: Hs-578T
NCI-H226 = test system: NCI-H226
SK-MEL-5 = test system: SK-MEL-5
HCC 2998 = test system: HCC 2998
SNB-75 = test system: SNB-75
HL-60 = test system: HL-60
MDA-MB-231 = test system: MDA-MB-231
SK-MEL-2 = test system: SK-MEL-2
MDA-N = test system: MDA-N
A498 = test system: A498
SNB-19 = test system: SNB-19
NCI-H23 = test system: NCI-H23
TK-10 = test system: TK-10
K562 = test system: K562
RXF 393 = test system: RXF 393
COLO 205 = test system: COLO 205
OVCAR-5 = test system: OVCAR-5
A549 = test system: A549
UACC-257 = test system: UACC-257
SK-MEL-28 = test system: SK-MEL-28
PC-3 = test system: PC-3
RPMI-8226 = test system: RPMI-8226
SN12C = test system: SN12C
BT-549 = test system: BT-549
IGROV-1 = test system: IGROV-1
786-0 = test system: 786-0
U-251 = test system: U-251
MOLT-4 = test system: MOLT-4
OVCAR-8 = test system: OVCAR-8
M14 = test system: M14
HOP-92 = test system: HOP-92
T47D = test system: T47D
NCI-H460 = test system: NCI-H460
UACC-62 = test system: UACC-62
EKVX = test system: EKVX
HCT-116 = test system: HCT-116
Malme-3M = test system: Malme-3M
CCRF-CEM = test system: CCRF-CEM
ACHN = test system: ACHN
SW-620 = test system: SW-620
MCF7 = test system: MCF7
SK-OV-3 = test system: SK-OV-3
SF-295 = test system: SF-295
NCI/ADR-RES = test system: NCI/ADR-RES
OVCAR-3 = test system: OVCAR-3
LOX IMVI = test system: LOX IMVI
MDA-MB-435 = test system: MDA-MB-435
OVCAR-4 = test system: OVCAR-4
CAKI-1 = test system: CAKI-1
NCI-H522 = test system: NCI-H522
SF-268 = test system: SF-268
SF-539 = test system: SF-539
DU-145 = test system: DU-145

O=C(CC(=O)n1nc(-c2ccccc2)c(/N=N/c2ccc(Cl)cc2)c1-c1ccccc1)Nc1cccc(Cl)c1
GI50 (HCT-15): 54.6 µM | GI50 (SR): 37.8 µM (inactive) | GI50 (KM12): > 100 µM (inactive) | GI50 (HOP-62): 38 µM (inactive) | GI50 (HT-29): 75.7 µM (inactive) | GI50 (UO-31): 30.5 µM (inactive) | GI50 (Hs-578T): > 100 µM (inactive) | GI50 (NCI-H226): 28.3 µM (inactive) | GI50 (SK-MEL-5): > 100 µM (inactive) | GI50 (HCC 2998): > 100 µM (inactive) | GI50 (SNB-75): 43.3 µM (inactive) | GI50 (HL-60): 28.5 µM (inactive) | GI50 (MDA-MB-231): 54.7 µM (inactive) | GI50 (SK-MEL-2): > 100 µM (inactive) | GI50 (MDA-N): > 100 µM (inactive) | GI50 (A498): 34.3 µM (inactive) | GI50 (SNB-19): 41.1 µM (inactive) | GI50 (NCI-H23): > 100 µM (inactive) | GI50 (TK-10): > 100 µM (inactive) | GI50 (K562): 46.7 µM (inactive) | GI50 (RXF 393): > 100 µM (inactive) | GI50 (COLO 205): > 100 µM (inactive) | GI50 (OVCAR-5): 96.4 µM (inactive) | GI50 (A549): > 100 µM (inactive) | GI50 (UACC-257): > 100 µM (inactive) | GI50 (SK-MEL-28): > 100 µM (inactive) | GI50 (PC-3): 75 µM (inactive) | GI50 (RPMI-8226): 65.6 µM (inactive) | GI50 (SN12C): 60.5 µM (inactive) | GI50 (BT-549): > 100 µM (inactive) | GI50 (IGROV-1): 5.25 µM (inactive) | GI50 (786-0): 59.6 µM (inactive) | GI50 (U-251): 40.9 µM (inactive) | GI50 (MOLT-4): 35.9 µM (inactive) | GI50 (OVCAR-8): 81.1 µM (inactive) | GI50 (M14): 70.1 µM (inactive) | GI50 (HOP-92): > 100 µM (inactive) | GI50 (T47D): > 100 µM (inactive) | GI50 (NCI-H460): 34.1 µM (inactive) | GI50 (UACC-62): 73.8 µM (inactive) | GI50 (EKVX): 25.3 µM (inactive) | GI50 (HCT-116): 61.7 µM (inactive) | GI50 (Malme-3M): 42.9 µM (inactive) | GI50 (CCRF-CEM): 38.9 µM (inactive) | GI50 (ACHN): 63.8 µM (inactive) | GI50 (SW-620): > 100 µM (inactive) | GI50 (MCF7): > 10 µM (inactive)

Cc1ccc(N(C)S(=O)(=O)c2ccc([N+](=O)[O-])cc2)cc1
GI50 (HCT-15): 91.4 µM | GI50 (SR): 78.2 µM (inactive) | GI50 (SK-OV-3): > 100 µM (inactive) | GI50 (KM12): 74.6 µM (inactive) | GI50 (HOP-62): > 100 µM (inactive) | GI50 (HT-29): 74.6 µM (inactive) | GI50 (UO-31): 44.3 µM (inactive) | GI50 (Hs-578T): > 100 µM (inactive) | GI50 (NCI-H226): 48.9 µM (inactive) | GI50 (SK-MEL-5): > 10 µM (inactive) | GI50 (HCC 2998): 93.5 µM (inactive) | GI50 (SNB-75): > 100 µM (inactive) | GI50 (HL-60): 54.6 µM (inactive) | GI50 (MDA-MB-231): 85.3 µM (inactive) | GI50 (SF-295): 92.3 µM (inactive) | GI50 (SK-MEL-2): > 100 µM (inactive) | GI50 (MDA-N): > 100 µM (inactive) | GI50 (NCI/ADR-RES): 97.9 µM (inactive) | GI50 (SNB-19): > 100 µM (inactive) | GI50 (OVCAR-3): > 100 µM (inactive) | GI50 (TK-10): > 100 µM (inactive) | GI50 (K562): 41 µM (inactive) | GI50 (RXF 393): > 100 µM (inactive) | GI50 (COLO 205): > 100 µM (inactive) | GI50 (OVCAR-5): > 100 µM (inactive) | GI50 (LOX IMVI): > 100 µM (inactive) | GI50 (A549): > 100 µM (inactive) | GI50 (UACC-257): > 100 µM (inactive) | GI50 (SK-MEL-28): > 100 µM (inactive) | GI50 (PC-3): 34.4 µM (inactive) | GI50 (MDA-MB-435): 81.8 µM (inactive) | GI50 (RPMI-8226): 59 µM (inactive) | GI50 (SN12C): > 100 µM (inactive) | GI50 (BT-549): > 100 µM (inactive) | GI50 (IGROV-1): > 100 µM (inactive) | GI50 (OVCAR-4): > 100 µM (inactive) | GI50 (786-0): > 100 µM (inactive) | GI50 (U-251): > 100 µM (inactive) | GI50 (MOLT-4): 34.9 µM (inactive) | GI50 (OVCAR-8): > 100 µM (inactive) | GI50 (M14): 49.8 µM (inactive) | GI50 (NCI-H460): 74 µM (inactive) | GI50 (CAKI-1): > 100 µM (inactive) | GI50 (NCI-H522): > 100 µM (inactive) | GI50 (SF-268): > 100 µM (inactive) | GI50 (UACC-62): 52.5 µM (inactive) | GI50 (EKVX): > 100 µM (inactive) | GI50 (HCT-116): > 100 µM (inactive) | GI50 (Malme-3M): 38.2 µM (inactive) | GI50 (CCRF-CEM): > 100 µM (inactive) | GI50 (ACHN): > 100 µM (inactive) | GI50 (SW-620): > 100 µM (inactive) | GI50 (SF-539): > 100 µM (inactive) | GI50 (MCF7): > 100 µM (inactive) | GI50 (DU-145): > 100 µM (inactive)

COc1cc(OC)c(-c2ccc(OCc3ccccc3)c3c(OC)cc(C)cc23)c2c1C(C)=N[C@H](C)C2
GI50 (HCT-15): 2.14 µM | GI50 (SR): 1.16 µM (inactive) | GI50 (SK-OV-3): 2.19 µM (inactive) | GI50 (KM12): 2.09 µM (inactive) | GI50 (HOP-62): 2.26 µM (inactive) | GI50 (HT-29): 1.97 µM (inactive) | GI50 (UO-31): 1.14 µM (inactive) | GI50 (Hs-578T): 2.29 µM (inactive) | GI50 (NCI-H226): 2.64 µM (inactive) | GI50 (SK-MEL-5): 2.27 µM (inactive) | GI50 (SNB-75): 2.29 µM (inactive) | GI50 (HL-60): 2.2 µM (inactive) | GI50 (MDA-MB-231): 2.33 µM (inactive) | GI50 (SF-295): 2.01 µM (inactive) | GI50 (SK-MEL-2): 2.25 µM (inactive) | GI50 (MDA-N): 2.15 µM (inactive) | GI50 (NCI/ADR-RES): 2.12 µM (inactive) | GI50 (A498): 2.16 µM (inactive) | GI50 (SNB-19): 2.68 µM (inactive) | GI50 (OVCAR-3): 2.25 µM (inactive) | GI50 (NCI-H23): 2.36 µM (inactive) | GI50 (TK-10): 1.8 µM (inactive) | GI50 (K562): 1.55 µM (inactive) | GI50 (RXF 393): 2.77 µM (inactive) | GI50 (COLO 205): 2.28 µM (inactive) | GI50 (OVCAR-5): 2.52 µM (inactive) | GI50 (LOX IMVI): 1.88 µM (inactive) | GI50 (A549): 2.3 µM (inactive) | GI50 (UACC-257): 2.17 µM (inactive) | GI50 (SK-MEL-28): 2.36 µM (inactive) | GI50 (PC-3): 2.1 µM (inactive) | GI50 (MDA-MB-435): 2.3 µM (inactive) | GI50 (RPMI-8226): 1.44 µM (inactive) | GI50 (SN12C): 2.04 µM (inactive) | GI50 (BT-549): 3.31 µM (inactive) | GI50 (IGROV-1): 1.87 µM (inactive) | GI50 (OVCAR-4): 2.14 µM (inactive) | GI50 (786-0): 2.1 µM (inactive) | GI50 (U-251): 2.08 µM (inactive) | GI50 (MOLT-4): 2.29 µM (inactive) | GI50 (OVCAR-8): 1.96 µM (inactive) | GI50 (M14): 2.03 µM (inactive) | GI50 (HOP-92): 1.64 µM (inactive) | GI50 (NCI-H460): 2.1 µM (inactive) | GI50 (CAKI-1): > 12.5 µM (inactive) | GI50 (NCI-H522): 1.82 µM (inactive) | GI50 (SF-268): 1.78 µM (inactive) | GI50 (UACC-62): 2.1 µM (inactive) | GI50 (EKVX): 2.4 µM (inactive) | GI50 (HCT-116): 2.23 µM (inactive) | GI50 (Malme-3M): 1.8 µM (inactive) | GI50 (CCRF-CEM): 1.99 µM (inactive) | GI50 (ACHN): 2.25 µM (inactive) | GI50 (SW-620): 2.45 µM (inactive) | GI50 (SF-539): 2.38 µM (inactive) | GI50 (DU-145): 2.38 µM (inactive)
